Source: patent publication US12660819B2, “Herbicidal derivatives” (SYNGENTA CROP PROTECTION AG, priority 2020, dated 2026)

Tests used:
Format in all cases: in vivo
[1] = test system: Amaranthus palmeri (AMAPA); assay: Post-emergence Test (glasshouse, percentage damage to the plant); details: 1000 g/ha unless otherwise stated, evaluated after 13 days; for AMAPA, percentage damage caused to the plant (five-point scale): post-emergence
Outline: (§1)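 Rate 1000 g/ha unless stated otherwise. Vehicle: acetone/water 50:50 with 0.5% Tween 20, diluted into aqueous spray. Timing: spray after sowing, read 13 days later. Score: 5=81-100%, 4=61-80%, 3=41-60%, 2=21-40%, 1=0-20% damage.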

[2] = test system: Amaranthus retoflexus (AMARE); assay: as above; details: 1000 g/ha unless otherwise stated, evaluated after 13 days; for AMARE, percentage damage caused to the plant (five-point scale): post-emergence
Outline: as §1

[3] = test system: Echinochloa crus-galli (ECHCG); assay: as above; details: 1000 g/ha unless otherwise stated, evaluated after 13 days; for ECHCG, percentage damage caused to the plant (five-point scale): post-emergence
Outline: as §1

[4] = test system: Ipomoea hederacea (IPOHE); assay: as above; details: 1000 g/ha unless otherwise stated, evaluated after 13 days; for IPOHE, percentage damage caused to the plant (five-point scale): post-emergence
Outline: (§2)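 Percentage damage to the plant, assessed 13 days after application and scored 1–5 in 20% bands. Pots sown in standard soil received compound at 1000 g/ha unless otherwise stated, sprayed under 24/16 °C, 14 h light, 65% humidity.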

Setaria faberi (SETFA) [5] = assay: as above; details: 1000 g/ha unless otherwise stated, evaluated after 13 days; for SETFA, percentage damage caused to the plant (five-point scale): post-emergence
Outline: as §2

Zea mays (ZEAMX) [6] = assay: as above; details: 1000 g/ha unless otherwise stated, evaluated after 13 days; for ZEAMX, percentage damage caused to the plant (five-point scale): post-emergence
Outline: as §2

[7] = test system: Amaranthus retoflexus (AMARE); assay: Pre-emergence Test (glasshouse, percentage damage to the plant); details: 1000 g/ha unless otherwise stated; for percentage damage to the plant, AMARE (five-point scale): Amaranthus retoflexus
Setaria faberi (SETFA) [8] = assay: as above; details: 1000 g/ha unless otherwise stated; for percentage damage to the plant, SETFA (five-point scale): Setaria faberi
[9] = test system: Echinochloa crus-galli (ECHCG); assay: as above; details: 1000 g/ha unless otherwise stated; for percentage damage to the plant, ECHCG (five-point scale): Echinochloa crus-galli
[10] = test system: Ipomoea hederacea (IPOHE); assay: as above; details: 1000 g/ha unless otherwise stated; for percentage damage to the plant, IPOHE (five-point scale): Ipomoea hederacea
[11] = test system: Amaranthus palmeri (AMAPA); assay: as above; details: 1000 g/ha unless otherwise stated; for percentage damage to the plant, AMAPA (five-point scale): Amaranthus palmeri
Zea mays (ZEAMX) [12] = assay: as above; details: 1000 g/ha unless otherwise stated; for percentage damage to the plant, ZEAMX (five-point scale): Zea mays

SMILES	AMAPA, percentage damage caused to the plant (five-point scale) [1]	AMARE, percentage damage caused to the plant (five-point scale) [2]	ECHCG, percentage damage caused to the plant (five-point scale) [3]	IPOHE, percentage damage caused to the plant (five-point scale) [4]	SETFA, percentage damage caused to the plant (five-point scale) (Setaria faberi (SETFA) [5])	ZEAMX, percentage damage caused to the plant (five-point scale) (Zea mays (ZEAMX) [6])	percentage damage to the plant, AMARE (five-point scale) [7]	percentage damage to the plant, SETFA (five-point scale) (Setaria faberi (SETFA) [8])	percentage damage to the plant, ECHCG (five-point scale) [9]	percentage damage to the plant, IPOHE (five-point scale) [10]	percentage damage to the plant, AMAPA (five-point scale) [11]	percentage damage to the plant, ZEAMX (five-point scale) (Zea mays (ZEAMX) [12])	further results
CCn1c(C)c(-c2ccc(Cl)cc2F)c(=O)c(C(=O)OC)c1-c1cnc(Cl)c(Cl)c1 [Compound 282, methyl 5-(4-chloro-2-fluoro-phenyl)-2-(5,6-dichloro-3-pyridyl)-1-ethyl-6-methyl-4-oxo-pyridine-3-carboxylate]	4 (4=61-80%)	4 (4=61-80%)	4 (4=61-80%)	2 (2=21-40%)	1 (1=0-20%)	3 (3=41-60%)	3 (3=41-60%)	1 (1=0-20%)	1 (1=0-20%)	0	4 (4=61-80%)	–	–
CCn1c(C)c(-c2cc(OC(C)C)c(Cl)cc2F)c(=O)c(C(=O)O)c1-c1ccc(F)c(F)c1 [Compound 260, 5-(4-chloro-2-fluoro-5-isopropoxy-phenyl)-2-(3,4-difluorophenyl)-1-ethyl-6-methyl-4-oxo-pyridine-3-carboxylic acid]	4 (4=61-80%)	4 (4=61-80%)	4 (4=61-80%)	3 (3=41-60%)	4 (4=61-80%)	3 (3=41-60%)	4 (4=61-80%)	4 (4=61-80%)	5 (5=81-100%)	3 (3=41-60%)	4 (4=61-80%)	1 (1=0-20%)	–
CCn1c(C)c(-c2ccc(F)cc2)c(=O)c(C(=O)O)c1-c1cnc(Cl)c(Cl)c1 [Compound 211, 2-(5,6-dichloro-3-pyridyl)-1-ethyl-5-(4-fluorophenyl)-6-methyl-4-oxo-pyridine-3-carboxylic acid]	3 (3=41-60%)	2 (2=21-40%)	1 (1=0-20%)	1 (1=0-20%)	1 (1=0-20%)	1 (1=0-20%)	1 (1=0-20%)	0	1 (1=0-20%)	0	4 (4=61-80%)	0	–
CCn1c(C)c(-c2cc(OCCOC)c(Cl)cc2F)c(=O)c(C(=O)O)c1-c1ccc(Cl)c(Cl)c1 [Compound 244, 5-[4-chloro-2-fluoro-5-(2-methoxyethoxy)phenyl]-2-(3,4-dichlorophenyl)-1-ethyl-6-methyl-4-oxo-pyridine-3-carboxylic acid]	5 (5=81-100%)	5 (5=81-100%)	5 (5=81-100%)	3 (3=41-60%)	5 (5=81-100%)	5 (5=81-100%)	5 (5=81-100%)	5 (5=81-100%)	5 (5=81-100%)	3 (3=41-60%)	5 (5=81-100%)	0	–
CCn1c(C)c(-c2cc(OCC3CC3)c(Cl)cc2F)c(=O)c(C(=O)O)c1-c1ccc(F)c(F)c1 [Compound 262, 5-[4-chloro-5-(cyclopropylmethoxy)-2-fluoro-phenyl]-2-(3,4-difluorophenyl)-1-ethyl-6-methyl-4-oxo-pyridine-3-carboxylic acid]	5 (5=81-100%)	5 (5=81-100%)	4 (4=61-80%)	2 (2=21-40%)	5 (5=81-100%)	4 (4=61-80%)	5 (5=81-100%)	5 (5=81-100%)	5 (5=81-100%)	3 (3=41-60%)	5 (5=81-100%)	2 (2=21-40%)	–
CCn1c(C)c(-c2ccc(F)cc2OC)c(=O)c(C(=O)OC)c1-c1ccc(Cl)c(Cl)c1 [Compound 163, methyl 2-(3,4-dichlorophenyl)-1-ethyl-5-(4-fluoro-2-methoxy-phenyl)-6-methyl-4-oxo-pyridine-3-carboxylate]	–	–	–	–	–	–	–	–	–	–	–	–	Post-emergence Test AMAPA, percentage damage to the plant (five-point scale) ([1]; post-emergence spray): 2 (2=21-40%); Post-emergence Test AMARE, percentage damage to the plant (five-point scale) ([2]; post-emergence spray): 1 (1=0-20%); Post-emergence Test ECHCG, percentage damage to the plant (five-point scale) ([3]; post-emergence spray): 0; Post-emergence Test IPOHE, percentage damage to the plant (five-point scale) ([4]; post-emergence spray): 0; Post-emergence Test SETFA, percentage damage to the plant (five-point scale) (Setaria faberi (SETFA) [5]; post-emergence spray): 0; Post-emergence Test ZEAMX, percentage damage to the plant (five-point scale) (Zea mays (ZEAMX) [6]; post-emergence spray): 0; percentage damage to the plant, AMARE ([7]; five-point scale): 1 (1=0-20%); percentage damage to the plant, SETFA (Setaria faberi (SETFA) [8]; five-point scale): 0; percentage damage to the plant, ECHCG ([9]; five-point scale): 0; percentage damage to the plant, IPOHE ([10]; five-point scale): 0; percentage damage to the plant, ZEAMX (Zea mays (ZEAMX) [12]; five-point scale): 1 (1=0-20%); percentage damage to the plant, AMAPA ([11]; five-point scale): 1 (1=0-20%)
Cc1c(-c2ccc(Cl)cc2Cl)c(=O)c(C(=O)O)c(-c2ccc(Cl)c(Cl)c2)n1C [Compound 251, 5-(2,4-dichlorophenyl)-2-(3,4-dichlorophenyl)-1,6-dimethyl-4-oxo-pyridine-3-carboxylic acid]	3 (3=41-60%)	4 (4=61-80%)	1 (1=0-20%)	0	0	1 (1=0-20%)	1 (1=0-20%)	0	0	0	2 (2=21-40%)	0	–
CCn1c(C)c(-c2ccc(Cl)cc2Cl)c(=O)c(C(=O)OC)c1-c1cnc(Cl)c(Cl)c1 [Compound 214, methyl 5-(2,4-dichlorophenyl)-2-(5,6-dichloro-3-pyridyl)-1-ethyl-6-methyl-4-oxo-pyridine-3-carboxylate]	2 (2=21-40%)	2 (2=21-40%)	0	0	1 (1=0-20%)	1 (1=0-20%)	0	0	0	0	0	0	–
CCn1c(C)c(-c2ccc(F)cc2F)c(=O)c(C(=O)OC)c1-c1cnc(Cl)c(Cl)c1 [Compound 213, methyl 2-(5,6-dichloro-3-pyridyl)-5-(2,4-difluorophenyl)-1-ethyl-6-methyl-4-oxo-pyridine-3-carboxylate]	3 (3=41-60%)	–	0	1 (1=0-20%)	0	1 (1=0-20%)	0	0	0	0	0	0	–
